Results on one substance are retold here after PMC12767106, “In Situ Assembly of Transformable Monopeptide on Activated Neutrophils Attenuates NETs‐Induced Hepatocellular Carcinoma Metastasis by Disrupting NE Nuclear Translocation” (Advanced Science, 2025).

The conditions of data set [1]: mouse, in vivo.
A further data set has as its system Hepa1-6 cells. In words: Transwell migration and Matrigel invasion assay. The class given is cell-based, mouse. As to the method:
Cell migration and invasion assay […]
Cell migration was monitored during the overnight culture of the cells. Hepa1-6/luc cells (5×10^5cells/well) were placed in the upper chamber of an 8µm transwell system and incubated in serum-free DMEM, while various treated media with 20% FBS were added to the lower chamber of 24-well plates. After incubation for 48 h, the transmembrane cells were washed, fixed with 4% paraformaldehyde, stained with crystal violet, and observed under a microscope (Axiovert 200, Zeiss, Germany). All the experiments were performed thrice. The Transwell invasion assay was performed using a similar procedure. Hepa1-6/luc cells (1×10^6cells/well) were seeded in the upper chamber of an 8µm transwell system coated with Matrigel (356231, Corning, New York, USA) and incubated in serum-free DMEM. The remaining operations were performed according to the steps of the migration assay. All the experiments were performed thrice.
Matrigel tube formation assay
Murine C166 endothelial cells (3×10^4cells/well) were placed on 96-well plates coated with Matrigel (356231, Corning, New York, USA) and incubated with various treatments. […]
In vitro permeability assays and trans-endothelial invasion assays […]

The next data set relates to activated neutrophils. In words: NETs formation (MPO-DNA ELISA, CitH3 immunofluorescence and Western blot). The class given is cell-based, mouse. The settings on record: PMA-activated neutrophils, 50 µM, 4 h, CitH3 staining and Western blot. As to the method: Submitted to Advanced Science
Neutrophil Elastase Activity Assay
To evaluate the distribution of active NE on the surface and inside of neutrophils, we used a kit (AkrivisBio’s Neutrophil Elastase Activity Assay, MA-0156), seeded neutrophils in confocal microscopy dishes, and then treated them with NFTP-NPs (50 µM, medium: DMSO = 99:1, v/v), FTP-NPs (50 µM, medium: DMSO = 99:1, v/v), PMA+NFTP-NPs (50 µM, medium: DMSO = 99:1, v/v), and PMA+FTP-NPs (50 µM, medium: DMSO = 99:1, v/v) at 37°C. Because the Neutrophil elastase in the kit cleaves a concrete fluorogenic substrate which releases AFC, providing intense fluorescence, 50 μl of MeOSucc-AAPV-AFC mix (Assay Buffer: MeOSucc-AAPV-AFC = 48:2) was added at 4 h, and after incubation for 1 h, the samples were examined by CLSM (LSM980, Zeiss, Germany).
Quantitative analysis of NE activity […]
DMSO = 99:1, v/v) for 4 h to obtain the solution.35,36 Quantitative analysis was carried out by a NETosis Assay Kit (Cayman Chemical, USA).
Quantitative induction analysis of NETs in vitro […]
According to the manufacturer's instructions, MPO -DNA levels in cultured supernatant were analyzed by an ELISA kit (MEIMIAN, China).38 Briefly, samples were added to each well and incubated with anti -MPO and anti-DNA antibodies for 2 h at room temperature. […] The OD value w as then measured by a microplate […]
Background: In an ELISA, binding on a coated surface is turned into a signal by an enzyme label.

Turning to PpIX-GFFVLK-EAIPMSIPPEVK [FTP-NPs], the “toxicity in mice (liver function, platelets, creatinine, blood cell count)” value in data set [1] is “nontoxic”. For the same substance, the “number of invasive cells” value in the data set on Hepa1-6 cells (Matrigel-coated transwell, versus Control and NFTP-NPs groups) is listed as “significantly lower”. Also, the “number of migrating cells” value with Hepa1-6 cells (transwell, 48 h, versus other control groups) is given as “significantly reduced”. In the data set with activated neutrophils, the “formation of NETs” value is “effectively inhibit the formation of NETs”.
